{"source": "ChEMBL document CHEMBL1201862", "about": "“PubChem BioAssay data set” (2004)", "assay_type_in_all_cases": "functional", "key": {"INS1": {"test_system": "INS1", "experiment": "caspase-3/7 inhibition in cytokine-treated INS-1E, dose response, beta-cell apoptosis inhibitor project, cell-based, caspase luminescence, dry powder (AID 488848)", "conditions": "Rattus norvegicus"}, "Hexokinase-1": {"molecular_target": "T1, Hexokinase-1 (Homo sapiens, UniProt P19367)", "T1 sequence (P19367 whole entry)": "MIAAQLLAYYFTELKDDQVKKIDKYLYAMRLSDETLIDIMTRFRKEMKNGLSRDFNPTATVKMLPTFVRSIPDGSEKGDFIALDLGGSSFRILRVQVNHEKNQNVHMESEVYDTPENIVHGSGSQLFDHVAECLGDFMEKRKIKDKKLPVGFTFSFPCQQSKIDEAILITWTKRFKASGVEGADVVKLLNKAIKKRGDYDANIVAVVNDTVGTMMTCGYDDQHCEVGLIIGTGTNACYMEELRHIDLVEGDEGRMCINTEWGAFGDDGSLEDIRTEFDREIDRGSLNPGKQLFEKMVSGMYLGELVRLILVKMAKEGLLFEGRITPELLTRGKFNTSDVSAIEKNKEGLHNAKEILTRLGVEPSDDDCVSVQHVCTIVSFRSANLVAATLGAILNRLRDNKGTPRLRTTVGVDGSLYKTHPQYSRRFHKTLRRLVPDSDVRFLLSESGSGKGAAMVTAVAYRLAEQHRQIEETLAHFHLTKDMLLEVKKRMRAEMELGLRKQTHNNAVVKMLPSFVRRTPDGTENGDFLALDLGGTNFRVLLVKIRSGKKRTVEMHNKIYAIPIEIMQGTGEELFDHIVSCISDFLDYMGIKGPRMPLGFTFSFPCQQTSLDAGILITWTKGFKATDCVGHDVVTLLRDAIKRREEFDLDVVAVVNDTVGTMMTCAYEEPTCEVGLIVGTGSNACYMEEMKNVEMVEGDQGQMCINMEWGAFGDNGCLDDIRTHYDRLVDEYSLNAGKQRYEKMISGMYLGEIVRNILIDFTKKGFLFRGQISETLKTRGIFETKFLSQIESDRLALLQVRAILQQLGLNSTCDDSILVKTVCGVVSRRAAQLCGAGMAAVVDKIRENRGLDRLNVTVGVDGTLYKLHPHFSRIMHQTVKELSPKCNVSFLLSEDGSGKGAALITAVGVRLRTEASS", "experiment": "SAR analysis of small molecule inhibitors of hexokinase domain containing I (HKDC1) in the hexokinase 1 selectivity assay. [Related pubchem assays (depositor defined):AID493160, AID493190]"}, "Hexokinase HKDC1": {"molecular_target": "T2, Hexokinase HKDC1 (Homo sapiens, UniProt Q2TB90)", "T2 sequence (Q2TB90 whole entry)": "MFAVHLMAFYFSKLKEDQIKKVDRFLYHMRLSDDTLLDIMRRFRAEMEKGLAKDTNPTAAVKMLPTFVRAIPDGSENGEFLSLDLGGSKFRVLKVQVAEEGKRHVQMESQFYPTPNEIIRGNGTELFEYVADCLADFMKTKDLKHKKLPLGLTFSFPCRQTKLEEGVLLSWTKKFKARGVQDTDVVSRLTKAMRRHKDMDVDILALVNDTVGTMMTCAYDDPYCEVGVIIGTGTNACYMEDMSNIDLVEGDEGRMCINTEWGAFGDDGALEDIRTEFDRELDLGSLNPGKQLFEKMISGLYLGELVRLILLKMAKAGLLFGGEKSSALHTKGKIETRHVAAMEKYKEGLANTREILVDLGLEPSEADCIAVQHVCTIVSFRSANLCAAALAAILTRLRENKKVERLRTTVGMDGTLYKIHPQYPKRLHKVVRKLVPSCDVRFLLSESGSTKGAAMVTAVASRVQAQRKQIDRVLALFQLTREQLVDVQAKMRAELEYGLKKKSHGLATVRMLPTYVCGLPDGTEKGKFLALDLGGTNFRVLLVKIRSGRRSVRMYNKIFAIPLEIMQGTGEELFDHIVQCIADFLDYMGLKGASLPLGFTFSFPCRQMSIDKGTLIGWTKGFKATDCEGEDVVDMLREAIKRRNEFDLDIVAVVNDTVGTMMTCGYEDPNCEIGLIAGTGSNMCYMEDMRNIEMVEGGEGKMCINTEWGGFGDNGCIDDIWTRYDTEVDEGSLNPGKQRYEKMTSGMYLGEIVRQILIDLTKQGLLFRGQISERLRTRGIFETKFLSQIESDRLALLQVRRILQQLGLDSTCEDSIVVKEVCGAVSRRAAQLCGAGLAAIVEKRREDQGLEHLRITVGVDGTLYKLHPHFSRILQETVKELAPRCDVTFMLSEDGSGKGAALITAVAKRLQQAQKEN", "experiment": "SAR analysis of small molecule inhibitors of hexokinase domain containing I (HKDC1). [Related pubchem assays (depositor defined):AID493160, AID493190]"}, "[1]": {"experiment": "BHK-21 cell cytotoxicity, cytotoxicity control for flavivirus guanylyltransferase probe project, secondary screen (AID 624078)"}, "Phospholipase D2 [2]": {"molecular_target": "T3, Phospholipase D2 (Homo sapiens, UniProt O14939)", "T3 sequence (O14939 whole entry)": "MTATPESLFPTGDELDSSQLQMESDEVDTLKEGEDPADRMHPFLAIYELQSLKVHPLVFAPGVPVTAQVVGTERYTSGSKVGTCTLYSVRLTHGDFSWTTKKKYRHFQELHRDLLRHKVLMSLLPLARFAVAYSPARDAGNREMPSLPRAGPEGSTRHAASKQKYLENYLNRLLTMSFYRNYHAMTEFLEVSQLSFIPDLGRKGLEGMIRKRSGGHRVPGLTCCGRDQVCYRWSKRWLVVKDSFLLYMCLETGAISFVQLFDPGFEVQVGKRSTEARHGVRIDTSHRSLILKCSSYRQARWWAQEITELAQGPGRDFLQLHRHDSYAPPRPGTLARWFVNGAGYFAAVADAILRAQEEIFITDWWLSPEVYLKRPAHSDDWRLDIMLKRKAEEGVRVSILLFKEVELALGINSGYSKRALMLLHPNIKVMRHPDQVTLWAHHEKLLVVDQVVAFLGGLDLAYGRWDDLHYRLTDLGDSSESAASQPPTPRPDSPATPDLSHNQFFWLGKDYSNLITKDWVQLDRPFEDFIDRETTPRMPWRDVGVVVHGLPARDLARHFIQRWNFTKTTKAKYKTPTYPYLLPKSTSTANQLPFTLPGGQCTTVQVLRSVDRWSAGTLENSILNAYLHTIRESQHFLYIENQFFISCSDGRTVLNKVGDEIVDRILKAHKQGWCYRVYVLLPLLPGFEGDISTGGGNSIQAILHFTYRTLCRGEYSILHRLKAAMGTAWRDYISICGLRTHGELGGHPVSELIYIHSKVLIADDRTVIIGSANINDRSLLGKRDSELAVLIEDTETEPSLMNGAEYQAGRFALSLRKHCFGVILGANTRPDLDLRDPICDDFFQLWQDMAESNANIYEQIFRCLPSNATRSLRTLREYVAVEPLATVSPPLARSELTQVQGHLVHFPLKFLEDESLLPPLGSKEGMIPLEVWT", "experiment": "PLD2 inhibitor potency in cells, dose response (AID 602147);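 further: cellular assay in HEK293 cells overexpressing GFP-tagged PLD2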"}, "Phospholipase D1": {"molecular_target": "T4, Phospholipase D1 (Homo sapiens, UniProt Q13393)", "T4 sequence (Q13393 whole entry)": "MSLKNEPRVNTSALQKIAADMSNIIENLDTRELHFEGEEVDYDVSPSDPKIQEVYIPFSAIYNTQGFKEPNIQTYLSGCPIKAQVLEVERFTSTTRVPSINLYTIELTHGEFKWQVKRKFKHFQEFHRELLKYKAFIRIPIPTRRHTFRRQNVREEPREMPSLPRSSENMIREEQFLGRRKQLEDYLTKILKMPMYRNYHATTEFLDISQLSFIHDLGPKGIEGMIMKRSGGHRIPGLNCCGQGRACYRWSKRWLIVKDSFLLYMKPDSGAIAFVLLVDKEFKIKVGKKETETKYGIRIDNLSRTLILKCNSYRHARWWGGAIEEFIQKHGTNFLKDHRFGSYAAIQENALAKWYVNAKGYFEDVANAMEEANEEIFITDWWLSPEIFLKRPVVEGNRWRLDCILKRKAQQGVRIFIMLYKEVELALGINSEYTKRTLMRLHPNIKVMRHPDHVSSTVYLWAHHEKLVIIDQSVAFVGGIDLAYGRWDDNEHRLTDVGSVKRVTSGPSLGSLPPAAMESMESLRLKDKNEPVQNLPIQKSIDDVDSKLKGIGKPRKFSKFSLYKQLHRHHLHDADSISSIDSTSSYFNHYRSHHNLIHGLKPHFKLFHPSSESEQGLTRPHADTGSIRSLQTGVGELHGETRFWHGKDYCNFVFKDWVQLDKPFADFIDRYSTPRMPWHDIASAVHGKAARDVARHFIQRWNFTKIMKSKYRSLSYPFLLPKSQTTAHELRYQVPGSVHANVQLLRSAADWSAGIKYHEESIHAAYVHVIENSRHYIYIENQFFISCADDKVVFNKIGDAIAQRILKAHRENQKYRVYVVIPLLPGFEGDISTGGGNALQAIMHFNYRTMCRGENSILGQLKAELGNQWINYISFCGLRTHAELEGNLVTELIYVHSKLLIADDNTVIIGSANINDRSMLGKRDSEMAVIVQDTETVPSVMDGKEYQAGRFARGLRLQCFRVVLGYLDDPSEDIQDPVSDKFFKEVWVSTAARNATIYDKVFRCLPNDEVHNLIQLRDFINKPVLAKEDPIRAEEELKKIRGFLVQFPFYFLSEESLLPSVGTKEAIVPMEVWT", "experiment": "PLD1 purified enzyme concentration response. [Related pubchem assays (depositor defined):AID588854]"}, "Phospholipase D2 [3]": {"molecular_target": "T3, Phospholipase D2", "experiment": "PLD2 purified enzyme concentration response. [Related pubchem assays (depositor defined):AID588854]"}, "NIH3T3": {"test_system": "NIH3T3", "experiment": "cytotoxicity in NIH-3T3 fibroblasts, dose response, cytotoxicity control for antifungal drug resistance project, cell-based, Alamar Blue, fluconazole, dry powder (AID 488809)", "conditions": "Mus musculus"}, "[4]": {"experiment": "THP-1 cell cytotoxicity, cytotoxicity control, set 6 (AID 602433)", "conditions": "Mycobacterium tuberculosis"}}, "note": "Activity calls are given as the source filed them. Unless noted, the calls are words filed in the database; no cut-off is given here.", "data": [{"compound": "COc1ccc(S(=O)(=O)N(C)C[C@@H]2Oc3c(NC(=O)Nc4cccc(-c5ncccn5)c4)cccc3C(=O)N([C@@H](C)CO)C[C@H]2C)cc1", "values": [{"measurement": "AC50", "setting": "INS1", "result": "98 µM (active)"}]}, {"compound": "O=C(O)CSc1cc(NS(=O)(=O)c2ccc(F)cc2)c2ccccc2c1O", "values": [{"measurement": "IC50", "setting": "Hexokinase-1", "result": "40.3 µM (inactive)"}, {"measurement": "IC50", "setting": "Hexokinase HKDC1", "result": "5.02 µM (active)"}, {"measurement": "CC50", "setting": "[1]", "result": "6.86 µM (active)"}]}, {"compound": "O=C(NCCN1CCC2(CC1)C(=O)NCN2c1ccc(F)c(F)c1)c1cnc2ccccc2c1", "values": [{"measurement": "IC50", "setting": "Phospholipase D2 [2]", "result": "0.069 µM (active)"}, {"measurement": "IC50", "setting": "Phospholipase D1", "result": "5.48 µM (active)"}, {"measurement": "IC50", "setting": "Phospholipase D2 [3]", "result": "0.2 µM (active)"}]}, {"compound": "O=S(=O)(c1ccc(Cl)cc1)N1CCN(c2ccnc3cc(Cl)ccc23)CC1", "values": [{"measurement": "AC50", "setting": "NIH3T3", "result": "27.7 µM (active)"}]}, {"compound": "CC(C)CCNC(=O)CSc1nc2c(c(=O)[nH]1)CCCC2", "values": [{"measurement": "CC50", "setting": "[4]", "result": "> 100 µM (inconclusive)"}]}]}
